Source: patent publication US20150132382A1, “COMPOSITIONS AND METHODS OF TREATMENT COMPRISING FOSFOMYCIN DISODIUM” (Forest Laboratories Holdings Ltd., priority 2013, published 2015)

What was measured:
[1] = Microenvironmental pH of fosfomycin sodium, with and without organic acid; assay type: physicochemical
Description: Fosfomycin may be granulated by using methods such as slugging, low or high shear granulation or fluid bed granulation. For example, for high shear granulation (e.g., Diosna Mixer Granulator), fosfomycin can be blended with a water soluble filler (e.g., lactose, sucrose, mannitol and sorbitol) and granulated with binder (sugars like sucrose and liquid glucose; natural binders like starch and pre-gelatinized starch; synthetic/semisynthetic polymers like HPMC, povidone, PEG, polyvinyl alcohol) solution. The granules are dried, milled and blended with an organic acid (e.g., citric acid, tartaric acid, succinic acid, malic acid, fumaric acid), anti-adherent (e.g., talc, fumed silica) and lubricant (sodium stearyl fumarate). The organic acid serves as a neutralizer counteracting microenvironmental high alkalinity resulting from fosfomycin sodium. Fosfomycin sodium microenvironmental pH of about 9 would be reduced to pH 6-8 due to the presence of an organic acid. The final blend is compressed into tablets (1.4-1.7 g/tablet) followed by film coating (e.g., Opadry) in a conventional coating pan. These formulations can provide≧80% fosfomycin dissolution in less than 30 minutes at pH 1.2.

[2] = Borsa et al 1988; cited from earlier work
[3] = compared with the other fosfomycin salt (Bergan 1990); cited from earlier work
[4] = cited from earlier work

| SMILES | microenvironmental pH [1] | gastric irritation [2] | bioavailability [3] | solubility in water [4] |
| --- | --- | --- | --- | --- |
| C[C@@H]1O[C@@H]1P(=O)(O)O [Fosfomycin disodium, fosfomycin disodium] | about 9 | known to cause gastric irritation | – | – |
| C[C@@H]1O[C@@H]1P(=O)([O-])[O-].[Ca+2] [fosfomycin calcium] | – | – | lower bioavailability | slightly soluble in water |
